Experimental data as given in patent US20260250325A1, “Antiviral Polypeptide Membrane Fusion Inhibitor, and Preparation Method and Application Thereof” (priority 2025, published 2026).
Where two headings read alike, the source gives them in different places. Where a SMILES comes first, the peptide text is derived from it. The star is where a group is joined. X1 = CC(C)CCCC(C)C1CCC2C3CC=C4CC(OC(=O)CCC(=O)*)CCC4(C)C3CCC12C

How the values were obtained:
[1] = Cytotoxicity test in HEp-2 cells (CCK8 cell viability); type: cell-based; settings: human
Outline: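 Compound dilutions (final DMSO 0.5%) were applied for 1 day to HEp-2 cells plated at 30,000 per well the day before. CCK8 signal gave survival relative to cell and medium controls, and a four-parameter log(inhibitor)-response fit yielded CC50.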

RSV A long virus strain = type: cell-based
Outline: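 Plaque reduction in HEp-2 cells: virus (100 PFU/well) and serially diluted compound (8 concentrations) mixed 1 h, adsorbed 2 h, then overlaid with 0.8% CMC medium plus compound for 1 day at 37 °C. Spots counted after anti-RSV immunostaining; IC50 from normalized inhibition, CC50 from viability data.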

[2] = HEp-2 cells, CCK8, 1 day, read-out: CC50
[3] = RSV A long virus strain, HEp-2 cells, plaque reduction, 1 day, read-out: IC50

Row | Molecule | CC50 at 1 day [1, 2] [µM] | IC50 (RSV A long virus strain; [3]) [µM] | CC50 at 1 day [1] [µM] | IC50 (RSV A long virus strain) [µM]
1 | CC[C@H](C)[C@H](NC(=O)[C@H](Cc1ccccc1)NC(=O)[C@H](CCCCN)NC(=O)[C@H](CC(C)C)NC(=O)[C@H](CO)NC(=O)[C@H](CCC(N)=O)NC(=O)[C@H](CCC(=O)O)NC(=O)[C@@H](NC(=O)[C@H](CCCCN)NC(=O)[C@H](CCCCN)NC(=O)[C@H](CC(N)=O)NC(=O)[C@@H](NC(=O)[C@H](CCC(N)=O)NC(=O)[C@H](CCC(=O)O)NC(=O)[C@H](CC(C)C)NC(=O)[C@H](CO)NC(C)=O)C(C)C)[C@@H](C)CC)C(=O)N[C@@H](CCC(=O)O)C(=O)N[C@@H](CCCCN)C(=O)N[C@@H](CO)C(=O)N[C@@H](CC(=O)O)C(=O)N[C@@H](CCCCN)C(=O)N[C@@H](CC(C)C)C(=O)N[C@@H](CC(C)C)C(=O)N[C@@H](CCC(=O)O)C(=O)N[C@@H](CC(N)=O)C(=O)NCC(=O)N[C@@H](CO)C(=O)NCC(=O)N[C@@H](CO)C(=O)NCC(=O)N[C@@H](CCCCNC(=O)CCC(=O)OC1CCC2(C)C(=CCC3C2CCC2(C)C(C(C)CCCC(C)C)CCC32)C1)C(N)=O (some centres unmarked) [Positive polypeptide 1, reference compound] (Ac-SLEQVNKKIEQSLKFIEKSDKLLENGSGSGK(X1)-NH2) | 3.69 | 0.15 | – | –
2 | CC[C@H](C)[C@H](NC(C)=O)C(=O)N[C@@H](CCC(=O)O)C(=O)N[C@@H](CCC(N)=O)C(=O)N[C@H](C(=O)N[C@@H](CC(N)=O)C(=O)N[C@@H](CCCCN)C(=O)N[C@@H](CCCCN)C(=O)N[C@H](C(=O)N[C@@H](CCC(=O)O)C(=O)N[C@@H](CCC(N)=O)C(=O)N[C@@H](CO)C(=O)N[C@@H](CC(C)C)C(=O)N[C@@H](CCCCN)C(=O)N[C@@H](Cc1ccccc1)C(=O)N[C@H](C(=O)N[C@@H](CCC(=O)O)C(=O)N[C@@H](CCCCN)C(=O)N[C@@H](CO)C(=O)N[C@@H](CC(=O)O)C(=O)N[C@@H](CCCCN)C(=O)N[C@@H](CC(C)C)C(=O)N[C@@H](CC(C)C)C(=O)N[C@@H](CCC(=O)O)C(=O)N[C@@H](CC(N)=O)C(=O)N[C@H](C(=O)N[C@@H](CC(N)=O)C(=O)N[C@@H](CCCCN)C(=O)NCC(=O)N[C@@H](CCCCN)C(N)=O)C(C)C)[C@@H](C)CC)[C@@H](C)CC)C(C)C [Positive polypeptide 2, reference compound] (Ac-IEQVNKKIEQSLKFIEKSDKLLENVNKGK-NH2) | > 10 | > 0.3 | – | –
3 | CC[C@H](C)[C@H](NC(C)=O)C(=O)N[C@@H](CCC(=O)O)C(=O)N[C@@H](CCC(=O)O)C(=O)N[C@H](C(=O)N[C@@H](CC(N)=O)C(=O)N[C@@H](CCCCN)C(=O)N[C@@H](CCCCN)C(=O)N[C@H](C(=O)N[C@@H](CCC(=O)O)C(=O)N[C@@H](CCC(=O)O)C(=O)N[C@@H](CO)C(=O)N[C@@H](CC(C)C)C(=O)N[C@@H](CCCCN)C(=O)N[C@@H](CCCCN)C(=O)N[C@H](C(=O)N[C@@H](CCC(=O)O)C(=O)N[C@@H](CCC(=O)O)C(=O)N[C@@H](CO)C(=O)N[C@@H](CC(=O)O)C(=O)N[C@@H](CCCCN)C(=O)N[C@@H](CCCCN)C(=O)N[C@@H](CC(C)C)C(=O)N[C@@H](CCC(=O)O)C(=O)N[C@@H](CCC(=O)O)C(=O)N[C@H](C(=O)N[C@@H](CC(N)=O)C(=O)N[C@@H](CCCCN)C(=O)N[C@@H](CCCCN)C(=O)N[C@@H](CCCCN)C(=O)N[C@@H](CCC(=O)O)C(=O)N[C@@H](C)C(=O)N[C@@H](C)C(=O)N[C@@H](C)C(=O)N[C@@H](CCCCN)C(=O)N[C@@H](CCCCNC(=O)CCC(=O)OC1CCC2(C)C(=CCC3C2CCC2(C)C(C(C)CCCC(C)C)CCC32)C1)C(N)=O)C(C)C)[C@@H](C)CC)[C@@H](C)CC)C(C)C (some centres unmarked) [Positive polypeptide 3, reference compound] (Ac-IEEVNKKIEESLKKIEESDKKLEEVNKKKEAAAKK(X1)-NH2) | > 10 | > 0.3 | – | –
4 | CC[C@H](C)[C@H](NC(C)=O)C(=O)N[C@@H](CCC(=O)O)C(=O)N[C@@H](CCC(N)=O)C(=O)N[C@H](C(=O)N[C@@H](CC(N)=O)C(=O)N[C@@H](CCCCN)C(=O)N[C@@H](CCCCN)C(=O)N[C@H](C(=O)N[C@@H](CCC(=O)O)C(=O)N[C@@H](CCC(N)=O)C(=O)N[C@@H](CO)C(=O)N[C@@H](CC(C)C)C(=O)N[C@@H](CCCCN)C(=O)N[C@@H](Cc1ccccc1)C(=O)N[C@H](C(=O)N[C@@H](CCC(=O)O)C(=O)N[C@@H](CCCCN)C(=O)N[C@@H](CO)C(=O)N[C@@H](CC(=O)O)C(=O)N[C@@H](CCCCN)C(=O)N[C@@H](CC(C)C)C(=O)N[C@@H](CC(C)C)C(=O)N[C@@H](CCC(=O)O)C(=O)N[C@@H](CC(N)=O)C(=O)N[C@H](C(=O)N[C@@H](CC(N)=O)C(=O)N[C@@H](CCCCN)C(=O)NCC(=O)N[C@@H](CCCCN)C(=O)N[C@@H](CS)C(=O)N[C@@H](CCC(=O)O)C(=O)N[C@@H](C)C(=O)N[C@@H](C)C(=O)N[C@@H](C)C(=O)N[C@@H](CCCCN)C(=O)N[C@@H](CCCCNC(=O)CCC(=O)OC1CCC2(C)C(=CCC3C2CCC2(C)C(C(C)CCCC(C)C)CCC32)C1)C(N)=O)C(C)C)[C@@H](C)CC)[C@@H](C)CC)C(C)C (some centres unmarked) [Positive polypeptide 4, reference compound] (Ac-IEQVNKKIEQSLKFIEKSDKLLENVNKGKCEAAAKK(X1)-NH2) | 4.62 | 0.19 | – | –
5 | CC[C@H](C)[C@H](NC(=O)[C@H](Cc1ccccc1)NC(=O)[C@H](CCCCN)NC(=O)[C@H](CC(C)C)NC(=O)[C@H](CO)NC(=O)[C@H](CCC(N)=O)NC(=O)[C@H](CCC(=O)O)NC(=O)[C@@H](NC(=O)[C@H](CCCCN)NC(=O)[C@H](CCCCN)NC(=O)[C@H](CC(N)=O)NC(=O)[C@@H](NC(=O)[C@H](CCC(N)=O)NC(=O)[C@H](CCC(=O)O)NC(=O)[C@H](CC(C)C)NC(C)=O)C(C)C)[C@@H](C)CC)C(=O)N[C@@H](CCC(=O)O)C(=O)N[C@@H](CCCCN)C(=O)N[C@@H](CO)C(=O)N[C@@H](CC(=O)O)C(=O)N[C@@H](CCCCN)C(=O)N[C@@H](CC(C)C)C(=O)N[C@@H](CC(C)C)C(=O)N[C@@H](CCC(=O)O)C(=O)N[C@@H](CC(N)=O)C(=O)N[C@H](C(=O)N[C@@H](CC(N)=O)C(=O)N[C@@H](CCCCN)C(=O)NCC(=O)N[C@@H](CCCCN)C(=O)N[C@@H](CS)C(=O)N[C@@H](CCC(=O)O)C(=O)N[C@@H](C)C(=O)N[C@@H](C)C(=O)N[C@@H](C)C(=O)N[C@@H](CCCCN)C(=O)N[C@@H](CCCCNC(=O)CCC(=O)OC1CCC2(C)C(=CCC3C2CCC2(C)C(C(C)CCCC(C)C)CCC32)C1)C(N)=O)C(C)C (some centres unmarked) [Positive polypeptide 5, reference compound] (Ac-LEQVNKKIEQSLKFIEKSDKLLENVNKGKCEAAAKK(X1)-NH2) | 3.72 | > 0.3 | – | –
6 | CC[C@H](C)[C@H](NC(=O)[C@H](C)NC(=O)[C@H](C)NC(=O)[C@H](CC(C)C)NC(=O)[C@H](CO)NC(=O)[C@H](CCC(N)=O)NC(=O)[C@H](CC(N)=O)NC(=O)[C@@H](NC(=O)[C@H](CCCCN)NC(=O)[C@H](CCC(=O)O)NC(=O)[C@H](CC(N)=O)NC(=O)[C@@H](NC(=O)[C@H](CCC(N)=O)NC(=O)[C@H](CO)NC(=O)[C@@H](NC(=O)[C@H](CO)NC(=O)[C@H](C)NC(=O)[C@H](CC(=O)O)NC(=O)[C@H](Cc1ccccc1)NC(=O)[C@H](CCC(=O)O)NC(=O)[C@H](CC(=O)O)NC(=O)[C@H](CO)NC(=O)[C@@H]1CCCN1C(=O)[C@H](Cc1ccccc1)NC(=O)[C@@H](NC(C)=O)C(C)C)[C@@H](C)CC)C(C)C)[C@@H](C)CC)C(=O)N[C@@H](CCCNC(=N)N)C(=O)N[C@@H](CCCCN)C(=O)N[C@@H](CO)C(=O)N[C@@H](CC(=O)O)C(=O)N[C@@H](CCC(=O)O)C(=O)N[C@@H](CC(C)C)C(=O)N[C@@H](CC(C)C)C(=O)N[C@@H](Cc1c[nH]cn1)C(=O)N[C@@H](CC(N)=O)C(=O)N[C@H](C(N)=O)C(C)C [Positive polypeptide 6, reference compound] (Ac-VFPSDEFDASISQVNEKINQSLAAIRKSDELLHNV-NH2) | > 10 | > 0.3 | – | –
7 | Ac-FDASISQVNEKINQSLAFIRKSDELLHNVNAGKSTTEAAAKK(X1)-NH2 [Positive polypeptide 7, reference compound] | > 10 | > 0.3 | – | –
8 | Ac-FDFDEFDASISQVNEKINESLAFIRLAFIRKSDELLEAAAKK-NH2 [Compound 24] | > 8 | 2.65 | – | –
9 | Ac-SLEQVNKINEKINKISQSLKKIEESDKKSDEVNAGLEAAAKK-NH2 [Compound 48] | – | – | > 8 | > 8
10 | Ac-SLEQVNKINKKIDKIEESLKKIEESDKKSLEVNKKLEAAAKK-NH2 [Compound 47] | – | – | > 8 | > 8
11 | Ac-SLEQVNKKIEQSLESLKKSDKINQSLEEVNKSDELLEAAAKK-NH2 [Compound 49] | – | – | > 8 | > 8
12 | Ac-WDEFDKKIEEVNKKIEESLKKIEESDKKLEEVNKKLEAAAKK(X1)-NH2 [Compound 9] | > 8 | 0.0957 | – | –
13 | Ac-WDEFDKKIEEVNKKIEESLKKIEESDKKLEEVNKKLGSGSGK(X1)-NH2 [Compound 11] | > 8 | 0.0991 | – | –
